System: yeast genes (level of expressed mRNA)
Test: DNA chip analysis of expressed mRNA of yeast genes after 2 h culture with a toxic chemical substance
Format: cell-based, Saccharomyces cerevisiae S288C
Conditions: for The level of expressed mRNA in the presence of chemical substance/ (ratio to absence of chemical substance): stress protein genes, DNA chip; for The level of expressed mRNA in the presence of chemical substance/ in its absence, gene YDL078C: yeast gene YDL078C
Experimental: Yeast (Saccharomyces cerevtisiae S288C (α SUC2mal mel gap2 CUP1)) were cultured at 25° C. on YPD medium (yeast extract 1%, polypepton 2%, glucose 2%). One of toxic chemical substances was added to the cell at logarithmic growth phase, and the cell was further cultured for two hours. Cell was cultured without any chemical substance in the same condition, and was used as control. Concentrations of the chemical substances were defined to inhibit the growth of the yeast but not lead to death.
After the completion of cultivation, the culture was centrifuged to collect the cells. To the cells, sodium acetate buffer (50 mM sodium acetate, 10 mM EDTA, 1% SDS) was added, and the mixture was shaken at 65° C. for five minutes, followed by returning to room temperature, and obtaining the supernatant, which procedure was repeated two times. To the supernatant, ½ amount of a solution of phenol/chloroform was added, and the mixture was centrifuged to give a supernatant, which was added with an equal amount of chloroform, and the mixture was centrifuged to give a supernatant. To the supernatant, an equal amount of isopropanol containing 0.3 M sodium acetate was added, and the mixture was allowed to stand at room temperature for 30 minutes, after which the mixture was centrifuged to give a sediment of the whole RNAs. Seventy % ethanol was added to the sediment, and the mixture was again centrifuged to give a sediment, which was then dried and dissolved in water. mRNA was isolated from the whole RNAs as followings. In view of the fact that a poly A chain is attached to the 3′ terminus of mRNA, a polynucleotide having a poly T structure which was immobilized on the surface of latex beads was used to trap the mRNA, and then the mRNA was washed and eluted with spine column (Oligotex-dT30<Super>mRNA Purification Kit, Takara). Reverse transcription of the mRNA was conducted with a reverse transcriptase (Super Script II Reverse Transcriptase; catalogue No. 18064-014, GibcoBRL) using fluorescence-labeled nucleotides to give cDNAs that were introduced with Cy3-dUTP or Cy5-dUTP during the reverse transcription.
The labeled cDNAs were dissolved in TE buffer (10 mM Tris-HCl/1 mM EDTA, pH8.0), and the solution was dropped on the DNA chip containing the whole genes of yeast (DNA Chip Research Inc. Japan) so that the cDNAs were hybridized on the DNA chip at 65° C. for over 12 hours. The fluoresces intensity of the DNA chip was read with a scanner, and the ratio relative to the fluorescence intensity resulting from the absence of chemical substance was estimated as the following, which is shown in Tables 1 to 9: [formula]
In the Tables, “Intensity” indicated in the rightmost column is a value of the level of expressed mRNA of each gene in control cells as divided by the average level of the expressions of the whole genes.

COc1cc(CNC(=O)CCCCC=CC(C)C)ccc1O [(12), 8-methyl-N-vanillyl-6-nonenamide]
level of expressed mRNA in the presence of chemical substance/in its absence (gene YOR344C): 1.3
level of expressed mRNA in the presence of chemical substance/in its absence (gene YOR347C): 1.2
The level of expressed mRNA in the presence of chemical substance/absence: YPL005W (gene YPL005W): 0.7
level of expressed mRNA in the presence of chemical substance/in its absence (gene YPL017C): 1.0
The level of expressed mRNA in the presence of chemical substance / the level in the absence of chemical substance, yeast gene YPL107W (gene YPL107W, DNA chip fluorescence ratio to control without chemical, 2 hours culture with chemical, growth-inhibiting non-lethal concentration): 0.7
The level of expressed mRNA in the presence of chemical substance / the level in the absence of chemical substance, yeast gene YPL138C (gene YPL138C, DNA chip fluorescence ratio to control without chemical, 2 hours culture with chemical, growth-inhibiting non-lethal concentration): 0.9
The level of expressed mRNA in the presence of chemical substance/absence: YPL150W (gene YPL150W): 1.0
The level of expressed mRNA in the presence of chemical substance/absence: YPL151C (gene YPL151C): 0.8
The level of expressed mRNA in the presence of chemical substance/absence: YPL152W (gene YPL152W): 0.9
The level of expressed mRNA in the presence of chemical substance/absence: YPL168W (gene YPL168W): 0.7
The level of expressed mRNA in the presence of chemical substance/absence: YPL180W (gene YPL180W): 0.8
The level of expressed mRNA in the presence of chemical substance/absence: YPL188W (gene YPL188W): 0.6
The level of expressed mRNA in the presence of chemical substance/absence: YPL221W (gene YPL221W): 0.8
The level of expressed mRNA in the presence of chemical substance/absence: YPL225W (gene YPL225W): 0.7
The level of expressed mRNA in the presence of chemical substance/absence: YPL249C (gene YPL249C): 0.9
The level of expressed mRNA in the presence of chemical substance/absence: YPL260W (gene YPL260W): 0.8
level of expressed mRNA in the presence of chemical substance/in its absence (gene YPL265W): 0.9
level of expressed mRNA in the presence of chemical substance/in its absence (gene YPR006C): 1.1
level of expressed mRNA in the presence of chemical substance/in its absence (gene YPR026W): 1.2
The level of expressed mRNA in the presence of chemical substance/absence: YPR049C (gene YPR049C): 0.9
The level of expressed mRNA in the presence of chemical substance/absence: YPR061C (gene YPR061C): 0.8
The level of expressed mRNA in the presence of chemical substance/absence: YPR093C (gene YPR093C): 0.9
The level of expressed mRNA in the presence of chemical substance/absence: YPR146C (gene YPR146C): 0.8
The level of expressed mRNA in the presence of chemical substance/absence: YPR148C (gene YPR148C): 1.2
The level of expressed mRNA in the presence of chemical substance/absence: YPR150W (gene YPR150W): 0.6
The level of expressed mRNA in the presence of chemical substance/absence: YPR158W (gene YPR158W): 0.6
The level of expressed mRNA in the presence of chemical substance/absence: YPR169W (gene YPR169W): 0.5
The level of expressed mRNA in the presence of chemical substance/absence: YPR172W (gene YPR172W): 0.8
The level of expressed mRNA in the presence of chemical substance/absence: YPR174C (gene YPR174C): 1.1
The level of expressed mRNA in the presence of chemical substance/The level of expressed mRNA in the absence of chemical substance (yeast gene YAR010C): 1.0
The level of expressed mRNA in the presence of chemical substance/The level of expressed mRNA in the absence of chemical substance (yeast gene YBL005W-A): 1.6
The level of expressed mRNA in the presence of chemical substance/ (ratio to absence), gene YBL038W (yeast gene YBL038W, mitochondria-located protein genes, 2 h culture with chemical): 0.7
The level of expressed mRNA in the presence of chemical substance/The level of expressed mRNA in the absence of chemical substance (yeast gene YBL041W): 1.6
The level of expressed mRNA in the presence of chemical substance/The level of expressed mRNA in the absence of chemical substance (yeast gene YBL043W): 0.9
The level of expressed mRNA in the presence of chemical substance/The level of expressed mRNA in the absence of chemical substance (yeast gene YBL078C): 3.1
The level of expressed mRNA in the presence of chemical substance/ (ratio to absence of chemical substance) (yeast gene YBL093C): 1.1
The level of expressed mRNA in the presence of chemical substance/ (in its absence), gene YBR036C (yeast gene YBR036C, ratio of DNA chip fluorescence intensity to that without chemical substance): 1.0
The level of expressed mRNA in the presence of chemical substance/ (ratio to absence of chemical substance) (yeast gene YBR044C): 0.8
The level of expressed mRNA in the presence of chemical substance/ (ratio to absence), gene YBR122C (yeast gene YBR122C, mitochondria-located protein genes, 2 h culture with chemical): 0.7
The level of expressed mRNA in the presence of chemical substance/The level of expressed mRNA in the absence of chemical substance (yeast gene YBR214W): 1.2
The level of expressed mRNA in the presence of chemical substance/ (ratio to absence), gene YBR251W (yeast gene YBR251W, mitochondria-located protein genes, 2 h culture with chemical): 1.1
The level of expressed mRNA in the presence of chemical substance/ (in its absence), gene YBR298C (yeast gene YBR298C, ratio of DNA chip fluorescence intensity to that without chemical substance): 1.1
The level of expressed mRNA in the presence of chemical substance/The level of expressed mRNA in the absence of chemical substance (yeast gene YCL020W): 1.5
The level of expressed mRNA in the presence of chemical substance/The level of expressed mRNA in the absence of chemical substance (yeast gene YCL027W): 0.8
The level of expressed mRNA in the presence of chemical substance/The level of expressed mRNA in the absence of chemical substance (yeast gene YCR004C): 0.8
The level of expressed mRNA in the presence of chemical substance/ (ratio to absence), gene YCR046C (yeast gene YCR046C, mitochondria-located protein genes, 2 h culture with chemical): 1.1
The level of expressed mRNA in the presence of chemical substance/The level of expressed mRNA in the absence of chemical substance (yeast gene YCR071C): 1.1
The level of expressed mRNA in the presence of chemical substance/ (ratio to absence), gene YCR083W (yeast gene YCR083W, mitochondria-located protein genes, 2 h culture with chemical): 1.1
The level of expressed mRNA in the presence of chemical substance/ (ratio to absence of chemical substance) (yeast gene YCR083W): 1.1
The level of expressed mRNA in the presence of chemical substance/The level of expressed mRNA in the absence of chemical substance (yeast gene YCR088W): 1.3
The level of expressed mRNA in the presence of chemical substance/The level of expressed mRNA in the absence of chemical substance (yeast gene YDL008W): 1.2
The level of expressed mRNA in the presence of chemical substance/ in its absence, gene YDL067C (yeast gene YDL067C, energy system protein genes, 2 h culture with the chemical, ratio to control without chemical): 1.0
The level of expressed mRNA in the presence of chemical substance/ (ratio to absence), gene YDL067C (yeast gene YDL067C, mitochondria-located protein genes, 2 h culture with chemical): 1.0
The level of expressed mRNA in the presence of chemical substance/ in its absence, gene YDL078C (energy system protein genes, 2 h culture with the chemical, ratio to control without chemical): 0.8
The level of expressed mRNA in the presence of chemical substance/ in its absence, gene YDL078C (ratio of DNA chip fluorescence intensity to that without chemical substance): 0.8
The level of expressed mRNA in the presence of chemical substance/ (in its absence), gene YDL215C (yeast gene YDL215C, ratio of DNA chip fluorescence intensity to that without chemical substance): 0.8
The level of expressed mRNA in the presence of chemical substance/The level of expressed mRNA in the absence of chemical substance (yeast gene YDL238C): 0.9
The level of expressed mRNA in the presence of chemical substance/The level of expressed mRNA in the absence of chemical substance (yeast gene YDR055W): 1.4

Source: patent publication US20050112573A1, “Method of detecting toxic substance” (priority 2001, published 2005)
